Source: US20080207632A1, “PROTEIN KINASE INHIBITORS” (SUPERGEN, INC., priority 2006, published 2008)
Like-named read-outs stand apart in the source and are kept apart here.

Molecular target: T1, aurora-2 kinase (Homo sapiens, UniProt O14965)
T1 construct: purchased Upstate, Lake Placid, N.Y; host or cells: sf9 cells
T1 sequence (O14965 1-403): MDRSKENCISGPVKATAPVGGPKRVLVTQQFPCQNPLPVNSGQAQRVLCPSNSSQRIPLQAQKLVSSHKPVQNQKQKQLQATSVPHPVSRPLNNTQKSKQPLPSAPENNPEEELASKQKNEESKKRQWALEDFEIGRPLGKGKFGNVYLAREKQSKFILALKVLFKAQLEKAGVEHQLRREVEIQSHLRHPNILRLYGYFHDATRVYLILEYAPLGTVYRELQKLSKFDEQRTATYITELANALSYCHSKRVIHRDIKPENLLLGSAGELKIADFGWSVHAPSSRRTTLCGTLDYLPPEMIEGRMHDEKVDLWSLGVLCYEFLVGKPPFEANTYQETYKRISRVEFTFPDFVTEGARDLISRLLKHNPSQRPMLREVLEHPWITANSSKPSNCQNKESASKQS
Assay: aurora-2 kinase inhibition assay (Kinase-Glo, ATP remaining)
Format: biochemical
Protocol: (§1) In this assay kinase activity was determined by quantifying the amount of ATP remaining in solution following a kinase reaction by measuring the light units (LU) produced by luciferase using a luminometer. Percent inhibition was determined for individual compounds by comparing luminometer readings of drug-treated reactions to controls containing no drug (DMSO control) and no Aurora-2 enzyme (ATP control) in the following equation: […]
(§2) In a 50 μl reaction, recombinant aurora-2 kinase produced in sf9 cells (Upstate, Lake Placid, N.Y.) was incubated at 30° C. for two hours with 62.5 μM Kemptide (Calbiochem, San Diego, Calif.), 3 μM ATP (Invitrogen, Carlsbad, Calif.) and kinase reaction buffer (40 mM Tris-HCl, 10 mM MgCl2 and 0.1 μg/μl bovine serum albumin (BSA)). This reaction was carried out in the presence of drug substances, which had been previously diluted to desired concentrations in DMSO. After incubation, 50 μl of Kinase-Glo® (Promega, Inc., Madison, Wis.) solution was added to each reaction mixture and allowed to equilibrate for 10 minutes at room temperature. Kinase-Glo solution contains luciferase enzyme and luciferin, which react with ATP to produce light. Kinase activity is determined by quantifying the amount of ATP remaining in solution following the kinase reaction by measuring the light units (LU) produced by luciferase using a luminometer (Thermo-Electron, Vantaa, Finland).
as §1, with “Briefly,” for “In this assay”
as §2, with “μg/Il” for “μg/μl”
as §1, with “Illustrative compounds 2-3, 2-5, 2-7, 2-4 and 2-9 were evaluated in an aurora-2 kinase inhibition assay. In” for “In”

[1] = Example 17, 3 μM ATP, read-out: IC50 (drug concentration at which 50% of aurora-2 kinase activity was inhibited)
[2] = Example 20, unit from the table's spanning head, read-out: IC50 A2K
[3] = Example 54, Table 8, 3 μM ATP, read-out: Aurora-2 Inhibition, IC50

Row | SMILES | IC50 [2] [nM] | IC50 [1] [nM] | IC50 [3] [nM]
1 | CC(=O)NS(=O)(=O)c1ccc(NC(=S)N2CCN(c3ncnc4[nH]c5cc(C(F)(F)F)c(Cl)cc5c34)CC2)cc1 [Compound 1-1, 4-(6-Chloro-7-trifluoromethyl-9H-pyrimido[4,5-b]indol-4-yl)-piperazine-1-carbothioic acid (4-acetylsulfamoyl-phenyl)-amide] | – | 49 | –
2 | COc1cc2[nH]c3ncnc(N4CCN(C(=S)Nc5ccc(S(=O)(=O)NC(C)=O)cc5)CC4)c3c2cc1OC [Compound 1-2, 4-(6,7-Dimethoxy-9H-pyrimido[4,5-b]indol-4-yl)-piperazine-1-carbothioic acid (4-acetylsulfamoyl-phenyl)-amide] | ≤ 5 | < 5 | –
3 | CC(=O)NS(=O)(=O)c1ccc(NC(=S)N2CCN(c3ncnc4[nH]c5ccc(Cl)cc5c34)CC2)cc1 [Compound 1-3, 4-(6-chloro-9H-pyrimido[4,5-b]indol-4-yl)-piperazine-1-carbothioic acid (4-acetylsulfamoyl-phenyl)-amide] | 74 | – | –
4 | COc1cc2[nH]c3ncnc(N4CCN(C(=S)Nc5ccc(S(=O)(=O)Nc6ccc(F)cc6)cc5)CC4)c3c2cc1OC [Compound 2-3, 4-(6,7-dimethoxy-9H-pyrimido[4,5-b]indol-4-yl)-N-(4-(N-(4-fluorophenyl)sulfamoyl)phenyl)piperazine-1-carbothioamide] | – | – | 110
5 | COc1ccc2c(c1)[nH]c1ncnc(N3CCN(C(=S)Nc4ccc(S(=O)(=O)Nc5ccc(F)cc5)cc4)CC3)c12 [Compound 2-5, 4-(7-methoxy-9H-pyrimido[4,5-b]indol-4-yl)-N-(4-(N-(4-fluorophenyl)sulfamoyl)phenyl)piperazine-1-carbothioamide] | – | – | 569
6 | Cc1ccc(NS(=O)(=O)c2ccc(NC(=S)N3CCN(c4ncnc5[nH]c6cc(Cl)c(N7CCOCC7)cc6c45)CC3)cc2)cc1 [Compound 2-9, 4-(7-chloro-6-morpholino-9H-pyrimido[4,5-b]indol-4-yl)-N-(4-(N-tolylsulfamoyl)phenyl)piperazine-1-carbothioamide] | – | – | 837

Second part, led by results:

Row | IC50 [2] [nM] | SMILES | IC50 [1] [nM] | IC50 [3] [nM]
7 | 23 | CC(=O)NS(=O)(=O)c1ccc(NC(=S)N2CCN(c3ncnc4[nH]c5cc(F)ccc5c34)CC2)cc1 [Compound 1-4] | – | –
8 | 18 | COc1cc2c(cc1O)[nH]c1ncnc(N3CCN(C(=S)Nc4ccc(S(=O)(=O)NC(C)=O)cc4)CC3)c12 [Compound 1-8] | – | –
9 | 317 | COc1cc2[nH]c3ncnc(N4CCN(C(=S)Nc5ccc(S(=O)(=O)N6CCOCC6)cc5)CC4)c3c2cc1OC [Compound 1-26] | – | –
10 | 2090 | COc1cc2[nH]c3ncnc(N4CCN(C(=S)Nc5ccc(NC(=O)C6CC6)cc5)CC4)c3c2cc1OC [Compound 1-34] | – | –
11 | 4970 | COc1cc2[nH]c3ncnc(N4CCN(C(=S)Nc5ccc(NC(C)=O)cc5)CC4)c3c2cc1OC [Compound 1-42] | – | –
12 | 586 | COc1cc2[nH]c3ncnc(N4CCN(C(=S)Nc5ccc(S(N)(=O)=O)cc5)CC4)c3c2cc1OC [Compound 1-107] | – | –
13 | 743 | COc1cc2[nH]c3ncnc(N4CCN(C(=S)Nc5ccc(S(C)(=O)=O)cc5)CC4)c3c2cc1OC [Compound 1-115] | – | –
